The source of these data is US20110319392A1, “Thiazole Sulfonamide And Oxazole Sulfonamide Kinase Inhibitors” (priority 2009, published 2011).

The target of one test is B-Raf (Homo sapiens, UniProt P15056). In words: B-Raf Accelerated MEK ATPase assay (BRAMA), Method A or B. It counts as biochemical. In a few lines: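 Activated Raf plus non-phosphorylated MEK drives MEK-mediated ATP hydrolysis; ADP formation coupled via pyruvate kinase/lactate dehydrogenase to NADH oxidation. Method A read kinetically; Method B used 150 nM final MEK and a single end-point read.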
B-Raf, sequence (P15056 whole entry): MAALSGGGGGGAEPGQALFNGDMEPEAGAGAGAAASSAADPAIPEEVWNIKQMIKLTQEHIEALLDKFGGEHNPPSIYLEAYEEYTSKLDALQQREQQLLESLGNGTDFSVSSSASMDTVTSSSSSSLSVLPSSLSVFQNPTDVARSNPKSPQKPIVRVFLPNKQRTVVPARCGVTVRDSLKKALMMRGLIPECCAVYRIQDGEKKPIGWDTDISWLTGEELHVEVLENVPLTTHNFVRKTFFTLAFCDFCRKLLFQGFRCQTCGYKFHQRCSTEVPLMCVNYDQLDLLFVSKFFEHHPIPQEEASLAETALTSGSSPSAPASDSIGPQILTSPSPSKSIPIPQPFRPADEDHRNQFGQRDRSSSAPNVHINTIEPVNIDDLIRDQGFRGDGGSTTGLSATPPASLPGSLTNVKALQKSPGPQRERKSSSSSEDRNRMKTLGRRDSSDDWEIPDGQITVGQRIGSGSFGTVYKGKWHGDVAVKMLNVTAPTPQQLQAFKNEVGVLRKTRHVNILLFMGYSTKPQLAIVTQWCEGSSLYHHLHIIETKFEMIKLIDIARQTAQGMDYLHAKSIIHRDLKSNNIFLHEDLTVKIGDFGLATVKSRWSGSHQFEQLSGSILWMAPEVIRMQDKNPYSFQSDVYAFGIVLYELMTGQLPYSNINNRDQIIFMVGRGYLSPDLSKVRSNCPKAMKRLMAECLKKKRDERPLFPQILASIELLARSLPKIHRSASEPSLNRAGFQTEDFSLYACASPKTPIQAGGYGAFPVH

In the next test the test system is SK-MEL-28 tumor cells. Nature of the test: Cell growth inhibition assay (CellTiter-Glo), SK-MEL-28. It counts as cell-based, Human. Particulars: Homo sapiens, SK-MEL-28, 72 h; 3 days incubation. A digest of the protocol:
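Cells plated at 500 cells/well in their growth media, dosed next day with nine-step 1:3 compound dilutions (final DMSO 0.2%), then incubated 3 days at 37° C, 5% CO2. Total ATP read by CellTiter-Glo luminescence as a surrogate for cell number; IC50 interpolated from 4-parameter fit versus DMSO controls.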

The mark [1] stands for this setting: Method B: final MEK 150 nM, single end point read.

Counter-ions that a name gives are not always drawn.

Turning to `CCNc1nc(-c2cccc(NS(=O)(=O)c3ccccc3)c2)c(-c2ccnc(Nc3ccc(OCCN4CCCC4)c(F)c3)n2)s1` [Example 1, N-(3-(2-(Ethylamino)-5-{2-[(3-fluoro-4-[[2-(1-pyrrolidinyl)ethyl]oxy}phenyl)amino]-4-pyrimidinyl}-1,3-thiazol-4-yl)phenyl]benzenesulfonamide], the IC50 on B-Raf (Method A) and in the test with SK-MEL-28 tumor cells was 100 to 1000 nM each time.
For `COCCN1CCN(c2ccc(Nc3nccc(-c4sc(C(C)C)nc4-c4cccc(NS(=O)(=O)c5ccccc5)c4)n3)cn2)CC1` [Example 6, N-[3-(2-(1-Methylethyl)-5-{2-[(6-{4-[2-(methyloxy)ethyl]-1-piperazinyl}-3-pyridinyl)amino]-4-pyrimidinyl}-1,3-thiazol-4-yl)phenyl]benzenesulfonamide], the IC50 on B-Raf (Method A) and in the test on SK-MEL-28 tumor cells was less than 100 nM each time.
As to `CC(C)c1nc(-c2cccc(NS(=O)(=O)c3ccccc3)c2)c(-c2ccnc(Nc3ccc(N4CCOCC4)nc3)n2)s1` [Example 8, N-{3-[2-(1-Methylethyl)-5-(2-{[6-(4-morpholinyl)-3-pyridinyl]amino}-4-pyrimidinyl)-1,3-thiazol-4-yl]phenyl}benzenesulfonamide hydrochloride], the IC50 against B-Raf (setting [1]) and with SK-MEL-28 tumor cells was less than 100 nM each time.
With `COc1ccc(Nc2nccc(-c3sc(C(C)C)nc3-c3cccc(NS(=O)(=O)c4ccccc4)c3)n2)cc1N1CCN(CCC#N)CC1` [Example 9, N-{3-[5-(2-{[3-[4-(2-Cyanoethyl)-1-piperazinyl]-4-(methyloxy)phenyl]amino}-4-pyrimidinyl)-2-(1-methylethyl)-1,3-thiazol-4-yl]phenyl}benzenesulfonamide], the IC50 against B-Raf (setting [1]) and with SK-MEL-28 tumor cells was less than 100 nM each time.
In the case of `CC(=O)N1CCN(c2ccc(Nc3nccc(-c4sc(C(C)C)nc4-c4cccc(NS(=O)(=O)c5ccc(F)cc5)c4)n3)cn2)CC1` [Example 10, N-{3-[5-(2-{[6-(4-Acetyl-1-piperazinyl)-3-pyridinyl]amino}-4-pyrimidinyl)-2-(1-methylethyl)-1,3-thiazol-4-yl]phenyl}-4-fluorobenzenesulfonamide], the IC50 against B-Raf (setting [1]) and in the test on SK-MEL-28 tumor cells was less than 100 nM throughout.
For the compound `CC(=O)N1CCN(c2ccc(Nc3nccc(-c4sc(C(C)C)nc4-c4cccc(NS(=O)(=O)c5cccc(F)c5)c4)n3)cn2)CC1` [Example 11, N-{3-[5-(2-{[6-(4-Acetyl-1-piperazinyl)-3-pyridinyl]amino}-4-pyrimidinyl)-2-(1-methylethyl)-1,3-thiazol-4-yl]phenyl}-3-fluorobenzenesulfonamide], the IC50 on B-Raf (setting [1]) and in the test with SK-MEL-28 tumor cells was less than 100 nM throughout.
Turning to `CC(=O)N1CCN(c2ccc(Nc3nccc(-c4sc(C(C)C)nc4-c4cccc(NS(=O)(=O)c5ccccc5F)c4)n3)cn2)CC1` [Example 12, N-{3-[5-(2-{[6-(4-Acetyl-1-piperazinyl)-3-pyridinyl]amino}-4-pyrimidinyl)-2-(1-methylethyl)-1,3-thiazol-4-yl]phenyl}-2-fluorobenzenesulfonamide], the IC50 against B-Raf (setting [1]) and with SK-MEL-28 tumor cells was less than 100 nM in each case.
`CC(C)c1nc(-c2cccc(NS(=O)(=O)c3c(F)cccc3F)c2)c(-c2ccnc(Nc3ccc(OC4CCN(CCS(C)(=O)=O)CC4)c(F)c3)n2)s1` [Example 13, 2,6-Difluoro-N-{3-[5-(2-{[3-fluoro-4-({1-[2-(methylsulfonyl)ethyl]-4-piperidinyl}oxy)phenyl]amino}-4-pyrimidinyl)-2-(1-methylethyl)-1,3-thiazol-4-yl]phenyl}benzenesulfonamide hydrochloride]: the IC50 against B-Raf (setting [1]) and with SK-MEL-28 tumor cells was less than 100 nM each time.
For the compound `CC(C)c1nc(-c2cccc(NS(=O)(=O)c3c(F)cccc3F)c2)c(-c2ccnc(Nc3ccc(N4CCOCC4)c(C(=O)O)c3)n2)s1` [Example 14, 5-({4-[4-(3-{[(2,6-Difluorophenyl)sulfonyl]amino}phenyl)-2-(1-methylethyl)-1,3-thiazol-5-yl]-2-pyrimidinyl}amino)-2-(4-morpholinyl)benzoic acid], the IC50 against B-Raf (setting [1]) and in the test on SK-MEL-28 tumor cells was less than 100 nM in each case.
For the compound `CC(C)c1nc(-c2cccc(NS(=O)(=O)c3c(F)cccc3F)c2)c(-c2ccnc(Nc3ccc(N4CCN5CCOC[C@H]5C4)nc3)n2)s1` [Example 15], the IC50 against B-Raf (setting [1]) and with SK-MEL-28 tumor cells was less than 100 nM in each case.
Regarding `CC(C)c1nc(-c2cccc(NS(=O)(=O)c3c(F)cccc3F)c2)c(-c2ccnc(Nc3ccc(N4CCN(CCS(C)(=O)=O)CC4)c(F)c3)n2)s1` [Example 16, 2,6-Difluoro-N-{3-[5-{2-[(3-fluoro-4-{4-[2-(methylsulfonyl)ethyl]-1-piperazinyl}phenyl)amino]-4-pyrimidinyl}-2-(1-methylethyl)-1,3-thiazol-4-yl]ohenyl}benzenesulfonamide hydrochloride], the half-maximal inhibitory concentration (IC50) against B-Raf (setting [1]) and in the test with SK-MEL-28 tumor cells was less than 100 nM each time.
Take `CC(C)c1nc(-c2cccc(NS(=O)(=O)c3c(F)cccc3F)c2)c(-c2ccnc(Nc3ccc(N4CCOCC4)nc3)n2)s1` [Example 17, 2,6-Difluoro-N-{3-[2-(1-methylethyl)-5-(2-{[6-(4-morpholinyl)-3-pyridinyl]amino}-4-pyrimidinyl)-1,3-thiazol-4-yl]phenyl}benzenesulfonamide]: the IC50 on B-Raf (setting [1]) and with SK-MEL-28 tumor cells was less than 100 nM throughout.
As for `COc1ccc(Nc2nccc(-c3sc(C(C)C)nc3-c3cccc(NS(=O)(=O)c4c(F)cccc4F)c3)n2)cc1N(C)C` [Example 18, N-{3-[5-(2-{[3-(Dimethylamino)-4-(methyloxy)phenyl]amino}-4-pyrimidinyl)-2-(1-methylethyl)-1,3-thiazol-4-yl]phenyl}-2,6-difluorobenzenesulfonamide trifluoroacetate], the 50% inhibitory concentration (IC50) against B-Raf (setting [1]) and in the test on SK-MEL-28 tumor cells was less than 100 nM in each case.
Take `COc1cc(N2CCN(CCS(C)(=O)=O)CC2)c(C)cc1Nc1nccc(-c2sc(C(C)C)nc2-c2cccc(NS(=O)(=O)c3c(F)cccc3F)c2)n1` [Example 19]: the IC50 on B-Raf (setting [1]) was less than 100 nM; in the test on SK-MEL-28 tumor cells, 100 to 1000 nM.
In the same order, the values of `COc1cc(N2CCC(N3CCN(CCS(C)(=O)=O)CC3)CC2)ccc1Nc1nccc(-c2sc(C(C)C)nc2-c2cccc(NS(=O)(=O)c3c(F)cccc3F)c2)n1` [Example 20, 2,6-Difluoro-N-{3-[2-(1-methylethyl)-5-(2-{[2-(methyloxy)-4-(4-{4-[2-(methylsulfonyl)ethyl]-1-piperazinyl}-1-piperidinyl)phenyl]amino}-4-pyrimidinyl)-1,3-thiazol-4-yl]phenyl}benzenesulfonamide] are less than 100 nM and less than 100 nM.
In the same order, the values of `O=S(=O)(Nc1cccc(-c2nc(N3CCCC3)sc2-c2ccnc(Nc3ccc(N4CCN(CCF)CC4)c(F)c3)n2)c1)c1c(F)cccc1F` [Example 21, 2,6-Difluoro-N-{3-[5-[2-({3-fluoro-4-[4-(2-fluoroethyl)-1-piperazinyl]phenyl}amino)-4-pyrimidinyl]-2-(1-pyrrolidinyl)-1,3-thiazol-4-yl]phenyl}benzenesulfonamide] are less than 100 nM and less than 100 nM.
On the same counts, the results for `CC(C)c1nc(-c2ccc(F)c(NS(=O)(=O)c3ccccc3F)c2)c(-c2ccnc(Nc3ccc(N4CCN(CCS(C)(=O)=O)CC4)c(F)c3)n2)s1` [Example 22, 2-Fluoro-N-{2-fluoro-5-[5-{2-[(3-fluoro-4-}4-[2-(methylsulfonyl)ethyl]-1-piperazinyl}phenyl)amino]-4-pyrimidinyl}-2-(1-methylethyl)-1,3-thiazol-4-yl]phenyl}benzenesulfonamide hydrochloride] are less than 100 nM and less than 100 nM.
Consider `CC(C)c1nc(-c2ccc(F)c(NS(=O)(=O)c3c(F)cccc3F)c2)c(-c2ccnc(Nc3ccc(N4CCOCC4)nc3)n2)s1` [Example 23, 2,6-Difluoro-N-{2-fluoro-5-[2-(1-methylethyl)-5-(2-{[6-(4-morpholinyl)-3-pyridinyl]amino}-4-pyrimidinyl)-1,3-thiazol-4-yl]phenyl}benzenesulfonamide], for which the half-maximal inhibitory concentration (IC50) against B-Raf (setting [1]) and in the test with SK-MEL-28 tumor cells was less than 100 nM in each case.
For the compound `CC(C)c1nc(-c2ccc(F)c(NS(=O)(=O)c3c(F)cccc3F)c2)c(-c2ccnc(Nc3ccc(N4CCC(C#N)CC4)nc3)n2)s1` [Example 24, N-{5-[5-(2-{[6-(4-Cyano-1-piperidinyl)-3-pyridinyl]amino}-4-pyrimidinyl)-2-(1-methylethyl)-1,3-thiazol-4-yl]-2-fluorophenyl}-2,6-difluorobenzenesulfonamide], the IC50 against B-Raf (setting [1]) and in the test with SK-MEL-28 tumor cells was less than 100 nM in each case.
For `CC(C)c1nc(-c2ccc(F)c(NS(=O)(=O)c3c(F)cccc3F)c2)c(-c2ccnc(Nc3ccc(N4CCN(CCF)CC4)c(F)c3)n2)s1` [Example 25], the figures for the IC50 on B-Raf (setting [1]) and in the test on SK-MEL-28 tumor cells were less than 100 nM and 100 to 1000 nM, respectively.
On the same counts, the results for `O=S(=O)(Nc1cc(-c2nc(N3CCCC3)sc2-c2ccnc(Nc3ccc(N4CCOCC4)nc3)n2)ccc1F)c1c(F)cccc1F` [Example 26, 2,6-Difluoro-N-{2-fluoro-5-[5-(2-{(6-(4-morpholinyl)-3-pyridinyl]amino}-4-pyrimidinyl)-2-(1-pyrrolidinyl)-1,3-thiazol-4-yl]phenyl}benzenesulfonamide] are less than 100 nM and less than 100 nM.
In the same order, the values of `CN(C)c1nc(-c2ccc(F)c(NS(=O)(=O)c3c(F)cccc3F)c2)c(-c2ccnc(Nc3ccc(N4CCOCC4)nc3)n2)s1` [Example 27, N-{5-[2-(Dimethylamino)-5-(2-{[6-(4-morpholinyl)-3-pyridinyl]amino}-4-pyrimidinyl)-1,3-thiazol-4-yl]-2-fluorophenyl}-2,6-difluorobenzenesulfonamide] are less than 100 nM and 100 to 1000 nM.
